In ChEMBL document CHEMBL4622949, “A chalcone derivative binds a putative allosteric site of YopH: Inhibition of a virulence factor of Yersinia” (Bioorg Med Chem Lett, 2020):

Molecular target: T1, Tyrosine-protein phosphatase non-receptor type 22 (Homo sapiens, UniProt Q9Y2R2)
T1 sequence (Q9Y2R2 whole entry): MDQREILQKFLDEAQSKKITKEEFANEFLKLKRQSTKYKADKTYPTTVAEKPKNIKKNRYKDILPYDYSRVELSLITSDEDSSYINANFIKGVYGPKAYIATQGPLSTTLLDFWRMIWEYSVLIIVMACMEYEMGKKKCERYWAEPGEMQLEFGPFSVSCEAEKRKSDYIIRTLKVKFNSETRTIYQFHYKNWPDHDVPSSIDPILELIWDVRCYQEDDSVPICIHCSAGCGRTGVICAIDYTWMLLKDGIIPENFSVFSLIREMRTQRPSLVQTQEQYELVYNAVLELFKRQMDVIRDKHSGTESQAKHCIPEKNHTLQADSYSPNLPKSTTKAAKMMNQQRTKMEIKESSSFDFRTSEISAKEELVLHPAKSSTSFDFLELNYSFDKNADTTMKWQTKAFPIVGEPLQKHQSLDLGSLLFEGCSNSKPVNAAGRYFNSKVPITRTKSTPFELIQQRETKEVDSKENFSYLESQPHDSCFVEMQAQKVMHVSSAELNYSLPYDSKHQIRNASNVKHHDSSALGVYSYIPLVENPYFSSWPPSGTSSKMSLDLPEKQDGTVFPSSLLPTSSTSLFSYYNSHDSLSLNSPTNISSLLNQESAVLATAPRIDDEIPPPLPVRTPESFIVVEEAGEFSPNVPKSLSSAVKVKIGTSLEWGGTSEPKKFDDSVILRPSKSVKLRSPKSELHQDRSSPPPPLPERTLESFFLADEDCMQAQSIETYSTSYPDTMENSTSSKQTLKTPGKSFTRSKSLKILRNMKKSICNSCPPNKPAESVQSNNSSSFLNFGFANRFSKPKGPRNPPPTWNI
Assay: Inhibition of LYP (unknown origin) at 25 uM using pNPP as substrate relative to control

| Compound | inhibition at 25 µM [%] |
| --- | --- |
| COc1cccc(C(=O)/C=C/c2ccc(C(=O)O)cc2)c1 | 6.8 |
| COc1ccc(C(=O)/C=C/c2ccc(C(=O)O)cc2)cc1OC | 4.2 |
| O=C(O)c1ccc(/C=C/C(=O)c2cccc3ccccc23)cc1 | 10.3 |
| COc1ccc(C(=O)/C=C/c2ccc(C(=O)O)cc2)c(OC)c1 | 3.9 |
| COc1cc(C(=O)/C=C/c2ccc(C(=O)O)cc2)ccc1O | 9.1 |
| O=C(O)c1ccc(/C=C/C(=O)c2ccccc2O)cc1 | 11.7 |
| Cc1ccc(C(=O)/C=C/c2ccc(C(=O)O)cc2)cc1 | 9.5 |
| O=C(O)c1ccc(/C=C/C(=O)c2ccc(F)cc2)cc1 | 11.4 |
| O=C(O)c1ccc(/C=C/C(=O)n2ccnc2)cc1 | 25.7 |
